Data reported in patent US6407130B1, “Carboxamide-substituted benzimidazoles having tryptase-inhibiting activity” (Boehringer Ingelheim Pharma KG, priority 1999, dated 2002).
Structures can show the parent of a compound that is named as a salt.

Molecular target: T1, rh beta tryptase (Homo sapiens, UniProt Q15661)
T1 construct: purchased Promega
T1 sequence (Q15661 31-275): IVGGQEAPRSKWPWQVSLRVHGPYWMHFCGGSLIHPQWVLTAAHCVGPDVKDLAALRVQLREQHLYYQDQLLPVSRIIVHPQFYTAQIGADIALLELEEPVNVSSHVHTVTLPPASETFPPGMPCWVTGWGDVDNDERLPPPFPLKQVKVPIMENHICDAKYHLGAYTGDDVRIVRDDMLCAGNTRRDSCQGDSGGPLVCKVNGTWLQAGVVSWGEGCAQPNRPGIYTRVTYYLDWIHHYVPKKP
Assay: tryptase inhibition test (cleavage of N-p-tosyl-Gly-Pro-Lys-para-nitroaniline, p-nitroaniline measured at 405 nm)
Assay type: biochemical
Conditions: Tris HCl buffer pH 7.4 with calcium and heparin; substrate 0.6 mM; 5 minutes' pre-incubation, 5 minutes incubation at 37° C.
Method in brief: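 Run in 100 mM Tris HCl, pH 7.4, with 5 mM calcium and […] heparin, enzyme at 0.91 U/ml and 0.6 mM substrate. Compounds pre-incubated 5 min, then substrate added; p-nitroaniline read after 5 min at 37° C. Screening at 10 μM gives % inhibition; IC50 determined where inhibition exceeds 70%.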
`Cn1c(CCc2ccc(C(=N)N)cc2)nc2cc(N(Cc3cccc4ccccc34)C(=O)CNCc3cccc(C(=N)N)c3)ccc21` [Example 8, N-{2-[2-(4-Amidinophenyl)-ethyl]-1-methylbenzimidazol-5-yl}-N-(α-naphthylmethyl)-[3-amidinobenzylaminoacetamide]-trihydrochloride] gave an IC50 of 16 nM.
Compound `Cn1c(CCc2ccc(C(=N)N)cc2)nc2cc(N(Cc3cccc4ccccc34)C(=O)CCc3ccccn3)ccc21` [Example 68, N-{2-[2-(4-Amidinophenyl)-ethyl]-1-methyl-benzimidazol-5-yl}-N-( - naphthylmethyl)-[3-(pyridin-2-yl)-propionamide]-hydrochloride] has an IC50 of 38 nM.
With `Cn1c(CCc2ccc(C(=N)N)cc2)nc2cc(NC(=O)C(N)Cc3ccc(C(=N)N)cc3)ccc21` (centres unmarked) [Example 4, N-{2-[2-(4-Amidinophenyl)-ethyl]-1-methyl-benzimidazol-5-yl}-[2-amino-3-(p-amidinophenyl)-propionic Acid Amide]-trihydrochloride] the IC50 was 55 nM.
With `COc1ccc(CNCC(=O)N(Cc2ccc3ccccc3c2)c2ccc3c(c2)nc(CCc2ccc(C(=N)N)cc2)n3C)cc1` [Example 57, N-{2-[2-(4-Amidinophenyl)-ethyl]-1-methyl-benzimidazol-5-yl}-N-(β-naphthylmethyl)-[4-methoxybenzylamino-acetamide]-dihydrochloride] the IC50 was 26 nM.
With `Cn1c(CCc2ccc(C(=N)N)cc2)nc2cc(N(Cc3cccc4ccccc34)C(=O)CNCc3ccc(N)cc3)ccc21` [Example 23, N-{2-[2-(4-Amidinophenyl)-ethyl]-1-methyl-benzimidazol-5-yl}-N-( - naphthylmethyl)-[4-aminobenzylamino-acetamide]-trihydrochloride] the IC50 was 7 nM.
Compound `Cn1c(CCc2ccc(C(=N)N)cc2)nc2cc(N(Cc3cccc4ccccc34)C(=O)CCCCCN)ccc21` [Example 31, N-{2-[2-(4-Amidinophenyl)-ethyl]-1-methyl-benzimidazol-5-yl}-N-( - naphthylmethyl)-[6-amino-hexanoic acid amide]-dihydrochloride] has an IC50 of 30 nM.
`Cn1c(CCc2ccc(C(=N)N)cc2)nc2cc(N(Cc3c4ccccc4cc4ccccc34)C(=O)CCC3CCN(Cc4ccccc4)CC3)ccc21` [Example 56, N-{2-[2-(4-Amidinophenyl)-ethyl]-1-methyl-benzimidazol-5-yl}-N-(anthracen-9-ylmethyl)-[3-(1-benzyl-piperidin-4-yl)-propionamide]-dihydro-chloride] gave an IC50 of 90.6 nM.
`Cn1c(CCc2ccc(C(=N)N)cc2)nc2cc(N(CCC(c3ccccc3)c3ccccc3)C(=O)CCc3ccc(C(=N)N)cc3)ccc21` [Example 10, N-{2-[2-(4-Amidinophenyl)-ethyl]-1-methyl-benzimidazol-5-yl}-N-(3,3-diphenylpropyl)-[3-(4-amidinophenyl)-propionamide]-dihydrochloride] gave an IC50 of 16 nM.
For `COc1ccccc1N1CCN(CC(=O)N(Cc2cccc3ccccc23)c2ccc3c(c2)nc(CCc2ccc(C(=N)N)cc2)n3C)CC1` [Example 58, N-{2-[2-(4-Amidinophenyl)-ethyl]-1-methyl-benzimidazol-5-yl}-N-( - naphthylmethyl)-[2-(1-(2-methoxyphenyl)-piperazin-4-yl)-acetamide]-dihydrochloride], the IC50 was 19 nM.

Test system: not given
Assay: not given
Conditions: not given
In the case of `Cn1c(CCc2ccc(C(=N)N)cc2)nc2cc(NC(=O)C(N)Cc3ccc(C(=N)N)cc3)ccc21` (centres unmarked) (as salt: hydrochloride) [Example 4, N-{2-[2-(4-Amidinophenyl)-ethyl]-1-methyl-benzimidazol-5-yl}-[2-amino-3-(p-amidinophenyl)-propionic Acid Amide]-trihydrochloride], the melting point is reported as greater than 260 °C.
Compound `CC(C)CN(C(=O)CCc1ccc(C(=N)N)cc1)c1ccc2c(c1)nc(CCc1ccc(C(=N)N)cc1)n2C` (as salt: hydrochloride) [Example 5, N-{2-[2-(4-Amidinophenyl)-ethyl]-1-methyl-benzimidazol-5-yl}-N-isobutyl-[3-(4-amidinophenyl)-propionamide]-dihydrochloride] has a melting point greater than 220 °C.
